Literature values as cited in patent US11819485B2, “Levodopa fractionated dose composition and use” (AVION PHARMACEUTICALS, LLC, priority 2018, dated 2023).
Read-outs that look alike come from different tables or passages of the source.

Key:
[1] = not given; remark: listed apart in the source
[2] = steady intravenous dose, plasma LD kept within efficacy-with-no-MRCs range, as long as the infusion lasted

Compound: N[C@@H](Cc1ccc(O)c(O)c1)C(=O)O [LD, Levodopa]
- duration of effect of each LD dose (beginning of the disease, orally administered LD): 6 h
- duration of effect of each dose (early stages of the disease): approximately 6 hours
- duration of effect of each dose (ultimately, as PD progresses): about 1.5 hours
- solubility in water [1]: poorly soluble in water
- antiparkinsonian effect and dyskinesias during infusion [2]: full antiparkinsonian effect (no wearing off) without any dyskinesias
